One block for each molecule: values may come before it. Calls of active or inactive are those of the source. The calls are words filed in the database; no cut-off is given here.
How the values were obtained:
[1] = test system: HT-29; experiment: Antiproliferative activity against human HT-29 cells assessed as reduction in cell growth incubated for 48 hrs by MTT assay; assay type: functional, cell-based; settings: HT-29, 48 h
[2] = test system: A549; experiment: Antiproliferative activity against human A549 cells assessed as reduction in cell growth incubated for 48 hrs by MTT assay; assay type: functional, cell-based; settings: A549, 48 h
[3] = test system: HT-29; experiment: Induction of cell cycle arrest in human HT-29 cells assessed as subG1 phase accumulation at 10 uM incubated for 48 hrs by PI staining based flow cytometry analysis (reference value: 0.06 %); assay type: functional
[4] = test system: HT-29; experiment: Induction of apoptosis in human HT-29 cells assessed as downregulation of Bcl2 expression at 1 to 10 uM incubated for 48 hrs by Western blot analysis; assay type: functional, cell-based; settings: dose 1-10 µM
[5] = test system: HT-29; experiment: Induction of cell cycle arrest in human HT-29 cells assessed as reduction in cyclin D1 level incubated for 48 hrs by Western blot analysis; assay type: functional, cell-based; settings: dose 1-10 µM
[6] = test system: HT-29; experiment: Induction of apoptosis in human HT-29 cells assessed as late apoptotic cells incubated for 48 hrs by annexin V-FITC and PI staining based flow cytometry analysis; assay type: functional, cell-based; settings: dose 1-10 µM
[7] = test system: HT-29; experiment: Induction of cell cycle arrest in human HT-29 cells assessed as S phase accumulation at 1 uM incubated for 48 hrs by PI staining based flow cytometry analysis (reference value: 36.98 %); assay type: functional
[8] = test system: HT-29; experiment: Induction of cell cycle arrest in human HT-29 cells assessed as G1 phase accumulation at 10 uM incubated for 48 hrs by PI staining based flow cytometry analysis (reference value: 56.39 %); assay type: functional
[9] = test system: HT-29; experiment: Induction of cell cycle arrest in human HT-29 cells assessed as S phase accumulation at 10 uM incubated for 48 hrs by PI staining based flow cytometry analysis (reference value: 36.98 %); assay type: functional
[10] = test system: HT-29; experiment: Induction of apoptosis in human HT-29 cells assessed as increase in caspase3 expression incubated for 48 hrs by Western blot analysis; assay type: functional, cell-based; settings: dose 1-10 µM
[11] = test system: HT-29; experiment: Induction of apoptosis in human HT-29 cells assessed as viable cells at 5 uM incubated for 48 hrs by annexin V-FITC and PI staining based flow cytometry analysis (reference value: 88.2 %); assay type: functional; settings: read-out: Activity
[12] = target: Vascular endothelial growth factor receptor 2 (Homo sapiens) (UniProt P35968); experiment: Inhibition of VEGFR2 in human HT-29 cells assessed as reduction in ERK1/2 phosphorylation incubated for 48 hrs by Western blot analysis; assay type: cell-based; settings: dose 1-10 µM
[13] = target: Vascular endothelial growth factor receptor 2 (Homo sapiens) (UniProt P35968); experiment: Inhibition of VEGFR2 in human HT-29 cells assessed as reduction in c-Raf expression incubated for 48 hrs by Western blot analysis; assay type: cell-based; settings: dose 1-10 µM
[14] = target: Vascular endothelial growth factor receptor 2 (Homo sapiens) (UniProt P35968); experiment: Inhibition of VEGFR2 in human HT-29 cells assessed as reduction in ERK1/2 expression incubated for 48 hrs by Western blot analysis; assay type: cell-based; settings: dose 1-10 µM
[15] = test system: HT-29; experiment: Induction of apoptosis in human HT-29 cells assessed as late apoptotic cells at 5 uM incubated for 48 hrs by annexin V-FITC and PI staining based flow cytometry analysis (reference value: 1.08 %); assay type: functional
[16] = test system: HT-29; experiment: Induction of apoptosis in human HT-29 cells assessed as upregulation of Bax expression at 1 to 10 uM incubated for 48 hrs by Western blot analysis; assay type: functional, cell-based; settings: dose 1-10 µM
[17] = test system: HT-29; experiment: Induction of apoptosis in human HT-29 cells assessed as early apoptotic cells at 10 uM incubated for 48 hrs by annexin V-FITC and PI staining based flow cytometry analysis (reference value: 1.01 %); assay type: functional
[18] = test system: HT-29; experiment: Induction of cell cycle arrest in human HT-29 cells assessed as G2 phase accumulation at 1 uM incubated for 48 hrs by PI staining based flow cytometry analysis (reference value: 11.7 %); assay type: functional
[19] = test system: HT-29; experiment: Induction of apoptosis in human HT-29 cells assessed as late apoptotic cells at 1 uM incubated for 48 hrs by annexin V-FITC and PI staining based flow cytometry analysis (reference value: 1.08 %); assay type: functional
[20] = test system: HT-29; experiment: Induction of apoptosis in human HT-29 cells assessed as viable cells at 1 uM incubated for 48 hrs by annexin V-FITC and PI staining based flow cytometry analysis (reference value: 88.2 %); assay type: functional; settings: read-out: Activity
[21] = test system: HT-29; experiment: Induction of apoptosis in human HT-29 cells assessed as early apoptotic cells at 1 uM incubated for 48 hrs by annexin V-FITC and PI staining based flow cytometry analysis (reference value: 1.01 %); assay type: functional
[22] = target: Vascular endothelial growth factor receptor 2 (Homo sapiens) (UniProt P35968); experiment: Inhibition of VEGFR2 in human HT-29 cells assessed as reduction in MEK expression incubated for 48 hrs by Western blot analysis; assay type: cell-based; settings: dose 1-10 µM
[23] = test system: HT-29; experiment: Induction of cell cycle arrest in human HT-29 cells assessed as G1 phase accumulation at 1 uM incubated for 48 hrs by PI staining based flow cytometry analysis (reference value: 56.39 %); assay type: functional
[24] = test system: HT-29; experiment: Induction of apoptosis in human HT-29 cells assessed as early apoptotic cells at 5 uM incubated for 48 hrs by annexin V-FITC and PI staining based flow cytometry analysis (reference value: 1.01 %); assay type: functional
[25] = test system: HT-29; experiment: Induction of apoptosis in human HT-29 cells assessed as early apoptotic cells incubated for 48 hrs by annexin V-FITC and PI staining based flow cytometry analysis; assay type: functional, cell-based; settings: dose 1-10 µM
[26] = test system: HT-29; experiment: Induction of cell cycle arrest in human HT-29 cells assessed as subG1 phase accumulation at 1 uM incubated for 48 hrs by PI staining based flow cytometry analysis (reference value: 0.06 %); assay type: functional
[27] = test system: HT-29; experiment: Induction of ROS accumulation in human HT-29 cells at 1 to 10 uM incubated for 12 hrs by […] and DAPI staining based luminescence spectrometer; assay type: functional, cell-based; settings: dose 1-10 µM
[28] = test system: HT-29; experiment: Induction of apoptosis in human HT-29 cells assessed as viable cells at 10 uM incubated for 48 hrs by annexin V-FITC and PI staining based flow cytometry analysis (reference value: 88.2 %); assay type: functional; settings: read-out: Activity
[29] = test system: HT-29; experiment: Induction of cell cycle arrest in human HT-29 cells assessed as S phase accumulation at 5 uM incubated for 48 hrs by PI staining based flow cytometry analysis (reference value: 36.98 %); assay type: functional
[30] = test system: HT-29; experiment: Induction of apoptosis in human HT-29 cells assessed as necrotic cells at 5 uM incubated for 48 hrs by annexin V-FITC and PI staining based flow cytometry analysis (reference value: 9.68 %); assay type: functional
[31] = target: Vascular endothelial growth factor receptor 2 (Homo sapiens) (UniProt P35968); experiment: Inhibition of VEGFR2 in human HT-29 cells assessed as reduction in VEGFR2 phosphorylation incubated for 48 hrs by Western blot analysis; assay type: cell-based; settings: dose 1-10 µM
[32] = test system: HT-29; experiment: Induction of cell cycle arrest in human HT-29 cells assessed as reduction in CDK4 level incubated for 48 hrs by Western blot analysis; assay type: functional, cell-based; settings: dose 1-10 µM
[33] = test system: HT-29; experiment: Induction of apoptosis in human HT-29 cells assessed as late apoptotic cells at 10 uM incubated for 48 hrs by annexin V-FITC and PI staining based flow cytometry analysis (reference value: 1.08 %); assay type: functional
[34] = test system: HT-29; experiment: Induction of cell cycle arrest in human HT-29 cells assessed as G1 phase accumulation at 5 uM incubated for 48 hrs by PI staining based flow cytometry analysis (reference value: 56.39 %); assay type: functional
[35] = test system: HT-29; experiment: Induction of apoptosis in human HT-29 cells assessed as necrotic cells at 10 uM incubated for 48 hrs by annexin V-FITC and PI staining based flow cytometry analysis (reference value: 9.68 %); assay type: functional
[36] = test system: HT-29; experiment: Induction of apoptosis in human HT-29 cells assessed as necrotic cells at 1 uM incubated for 48 hrs by annexin V-FITC and PI staining based flow cytometry analysis (reference value: 9.68 %); assay type: functional
[37] = test system: HT-29; experiment: Induction of cell cycle arrest in human HT-29 cells assessed as G2 phase accumulation at 10 uM incubated for 48 hrs by PI staining based flow cytometry analysis (reference value: 11.7 %); assay type: functional
[38] = test system: HT-29; experiment: Induction of cell cycle arrest in human HT-29 cells assessed as subG1 phase accumulation at 5 uM incubated for 48 hrs by PI staining based flow cytometry analysis (reference value: 0.06 %); assay type: functional
[39] = test system: HT-29; experiment: Induction of apoptosis in human HT-29 cells assessed as increase in ratio of Bax/Bcl2 at 1 to 10 uM incubated for 48 hrs by Western blot analysis; assay type: functional, cell-based; settings: dose 1-10 µM
[40] = test system: HT-29; experiment: Induction of cell cycle arrest in human HT-29 cells assessed as G2 phase accumulation at 5 uM incubated for 48 hrs by PI staining based flow cytometry analysis (reference value: 11.7 %); assay type: functional

Chain of Vascular endothelial growth factor receptor 2 (Homo sapiens) (P35968 whole entry): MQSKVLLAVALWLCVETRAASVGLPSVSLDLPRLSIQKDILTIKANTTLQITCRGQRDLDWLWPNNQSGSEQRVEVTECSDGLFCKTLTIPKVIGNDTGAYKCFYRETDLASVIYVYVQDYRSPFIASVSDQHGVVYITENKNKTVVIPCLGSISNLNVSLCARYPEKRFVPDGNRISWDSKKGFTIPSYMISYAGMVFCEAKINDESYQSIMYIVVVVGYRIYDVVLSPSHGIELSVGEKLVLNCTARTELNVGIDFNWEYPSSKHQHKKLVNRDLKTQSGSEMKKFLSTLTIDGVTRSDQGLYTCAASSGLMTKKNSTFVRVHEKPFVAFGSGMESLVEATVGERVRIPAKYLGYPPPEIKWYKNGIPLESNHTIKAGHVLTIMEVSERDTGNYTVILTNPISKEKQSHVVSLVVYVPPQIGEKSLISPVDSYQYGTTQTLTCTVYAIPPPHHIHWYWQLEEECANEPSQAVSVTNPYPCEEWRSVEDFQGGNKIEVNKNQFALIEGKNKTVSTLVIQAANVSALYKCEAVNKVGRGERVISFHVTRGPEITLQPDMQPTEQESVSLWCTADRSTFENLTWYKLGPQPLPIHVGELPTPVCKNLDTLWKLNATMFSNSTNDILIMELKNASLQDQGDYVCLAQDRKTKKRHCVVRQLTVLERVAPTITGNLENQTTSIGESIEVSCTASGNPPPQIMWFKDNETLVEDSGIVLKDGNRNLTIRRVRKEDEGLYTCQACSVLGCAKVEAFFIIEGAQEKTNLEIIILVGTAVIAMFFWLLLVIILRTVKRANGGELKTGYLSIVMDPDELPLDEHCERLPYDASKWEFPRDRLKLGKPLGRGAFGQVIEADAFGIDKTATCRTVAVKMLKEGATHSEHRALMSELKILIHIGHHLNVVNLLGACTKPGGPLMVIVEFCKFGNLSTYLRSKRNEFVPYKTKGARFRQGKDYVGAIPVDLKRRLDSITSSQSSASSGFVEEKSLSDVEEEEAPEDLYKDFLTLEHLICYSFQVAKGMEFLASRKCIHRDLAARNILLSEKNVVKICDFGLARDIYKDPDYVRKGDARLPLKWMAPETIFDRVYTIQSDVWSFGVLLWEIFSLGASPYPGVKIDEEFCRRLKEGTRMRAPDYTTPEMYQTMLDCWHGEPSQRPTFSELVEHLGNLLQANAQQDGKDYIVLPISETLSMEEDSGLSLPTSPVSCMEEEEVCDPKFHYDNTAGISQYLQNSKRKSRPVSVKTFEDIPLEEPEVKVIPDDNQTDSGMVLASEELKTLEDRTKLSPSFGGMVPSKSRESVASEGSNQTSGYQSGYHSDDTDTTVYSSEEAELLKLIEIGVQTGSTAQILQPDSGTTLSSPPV

Compound: Cc1ccc(NC(=O)Nc2ccc(OC(=O)c3ccccc3)cc2)cc1
IC50 [1]: 104 µM
IC50 [2]: 47.7 µM

Compound: O=C(Nc1ccccc1)Nc1ccc(OC(=O)c2ccccc2)cc1
IC50 [1]: 123 µM
IC50 [2]: 81.2 µM

Compound: COc1ccc(C(=O)Oc2ccc(NC(=O)Nc3ccccc3)cc2)cc1
IC50 [1]: 175 µM
IC50 [2]: 60.2 µM

Compound: O=C(Nc1ccccc1)Nc1ccc(OC(=O)c2ccc([N+](=O)[O-])cc2)cc1
IC50 [1]: 185 µM
IC50 [2]: 120 µM

Molecules with a lower IC50 [1], results first:

IC50 [1]: 3.38 µM
inhibition [12]: Dose-dependent effect
inhibition [13]: Dose-dependent effect
inhibition [14]: Dose-dependent effect
IC50 [2]: 0.63 µM
inhibition [22]: Dose-dependent effect
inhibition [31]: Dose-dependent effect
Compound: O=C(Cc1ccccc1)Nc1ccc(NC(=O)Nc2ccccc2)cc1
Activity [3]: 3.45%
Activity [4]: Active
Activity [5]: Dose-dependent effect
Activity [6]: Dose-dependent effect
Activity [7]: 29.67%
Activity [8]: 60.9%
Activity [9]: 15.84%
Activity [10]: Dose-dependent effect
viability at 5 µM [11]: 86.8%
Activity [15]: 2.18%
Activity [16]: Active
Activity [17]: 2.22%
Activity [18]: 11.64%
Activity [19]: 1.93%
viability at 1 µM [20]: 82.4%
Activity [21]: 1.46%
Activity [23]: 61.96%
Activity [24]: 3.09%
Activity [25]: Dose-dependent effect
Activity [26]: 0.43%
Activity [27]: Active
viability at 10 µM [28]: 85.6%
Activity [29]: 18.48%
Activity [30]: 7.95%
Activity [32]: Dose-dependent effect
Activity [33]: 5.46%
Activity [34]: 63.44%
Activity [35]: 6.75%
Activity [36]: 14.2%
Activity [37]: 27.49%
Activity [38]: 7.45%
Activity [39]: Active
Activity [40]: 18.18%

IC50 [1]: 56 µM
IC50 [2]: 24.7 µM
Compound: O=C(Nc1ccc(Cl)cc1)Nc1ccc(OC(=O)c2ccccc2)cc1

IC50 [1]: 33.8 µM
IC50 [2]: 16.1 µM
Compound: COc1ccc(C(=O)Oc2ccc(NC(=O)Nc3ccc(Cl)c(C(F)(F)F)c3)cc2)cc1

IC50 [1]: 94.4 µM
IC50 [2]: 29.7 µM
Compound: O=C(Nc1ccc(F)cc1)Nc1ccc(OC(=O)c2ccccc2)cc1

From ChEMBL document CHEMBL4765379, “Synthesis and biological evaluation of diaryl urea derivatives designed as potential anticarcinoma agents using de novo structure-based lead optimization approach” (Eur J Med Chem, 2020)
